{"source": "ChEMBL document CHEMBL4308870", "about": "“Discovery and SAR studies of novel 2-anilinopyrimidine-based selective inhibitors against triple-negative breast cancer cell line MDA-MB-468” (2019)", "data": [{"tested_on": "MCF7", "test": "cells", "format": "functional", "conditions": "Homo sapiens, MCF7, 48 h", "units": {"GI50": "µM"}, "description": "Growth inhibition of human MCF7 cells after 48 hrs by MTT assay", "values": [{"compound": "c1cc(N2CCCCC2)nc(Nc2ccc(OCCCN3CCCCC3)cc2)n1", "GI50": "> 30"}, {"compound": "CCN(CC)c1ccnc(Nc2ccc(OCCCN3CCSCC3)cc2)n1", "GI50": 27.3}, {"compound": "CC1CCN(c2ccnc(Nc3ccc(OCCCN4CCOCC4)cc3)n2)CC1", "GI50": "> 30"}, {"compound": "c1cc(N2CCCCC2)nc(Nc2ccc(OCCCN3CCOCC3)cc2)n1", "GI50": "> 30"}, {"compound": "CCN(CC)CCCOc1ccc(Nc2nccc(N3CCC(C)CC3)n2)cc1", "GI50": "> 30"}, {"compound": "CCN(CC)c1ccnc(Nc2ccc(OCCCN3CCCCC3)cc2)n1", "GI50": 18.3}, {"compound": "ClC1CCN(c2ccnc(Nc3ccc(OCCCN4CCCCC4)cc3)n2)CC1", "GI50": "> 30"}, {"compound": "CC1CCN(c2ccnc(Nc3ccc(OCCCN4CCCCC4)cc3)n2)CC1", "GI50": 28.1}]}, {"tested_on": "not listed separately", "test": "Selectivity index, ratio of GI50 for human MCF7 cells to GI50 for EGFR over-expressing human MDA-MB-468 cells", "format": "functional", "conditions": "not given", "values": [{"compound": "c1cc(N2CCCCC2)nc(Nc2ccc(OCCCN3CCCCC3)cc2)n1", "RatioGI50": ">3.3"}, {"compound": "CCN(CC)c1ccnc(Nc2ccc(OCCCN3CCSCC3)cc2)n1", "RatioGI50": 3.6}, {"compound": "CC1CCN(c2ccnc(Nc3ccc(OCCCN4CCOCC4)cc3)n2)CC1", "RatioGI50": ">1.8"}, {"compound": "CCN(CC)CCCOc1ccc(Nc2nccc(N3CCC(C)CC3)n2)cc1", "RatioGI50": ">4.3"}, {"compound": "CCN(CC)c1ccnc(Nc2ccc(OCCCN3CCCCC3)cc2)n1", "RatioGI50": 1.6}, {"compound": "ClC1CCN(c2ccnc(Nc3ccc(OCCCN4CCCCC4)cc3)n2)CC1", "RatioGI50": ">2.6"}, {"compound": "CC1CCN(c2ccnc(Nc3ccc(OCCCN4CCCCC4)cc3)n2)CC1", "RatioGI50": 4.4}]}, {"tested_on": "MCF7", "test": "Cytotoxicity against human MCF7 cells assessed as cell viability at 10 uM after 48 hrs by MTT assay relative to control", "format": "functional", "conditions": "MCF7, 48 h, read-out: Activity", "units": {"viability at 10 µM": "%"}, "values": [{"compound": "c1cc(N2CCSCC2)nc(Nc2ccc(OCCCN3CCOCC3)cc2)n1", "viability at 10 µM": 86.1}, {"compound": "COc1cc2ncnc(Nc3ccc(F)c(Cl)c3)c2cc1OCCCN1CCOCC1", "note": "[GEFITINIB]", "viability at 10 µM": 70.3}, {"compound": "CCN(CC)CCCOc1ccc(Nc2nccc(N3CCSCC3)n2)cc1", "viability at 10 µM": 86.4}, {"compound": "c1cc(N2CCCCC2)nc(Nc2ccc(OCCCN3CCSCC3)cc2)n1", "viability at 10 µM": 72.9}, {"compound": "c1cc(N2CCCCC2)nc(Nc2ccc(OCCCN3CCCCC3)cc2)n1", "viability at 10 µM": 86.7}, {"compound": "c1cc(N2CCOCC2)nc(Nc2ccc(OCCCN3CCCCC3)cc2)n1", "viability at 10 µM": 95.7}, {"compound": "c1cc(N2CCSCC2)nc(Nc2ccc(OCCCN3CCSCC3)cc2)n1", "viability at 10 µM": 77.8}, {"compound": "CCN(CC)c1ccnc(Nc2ccc(OCCCN3CCSCC3)cc2)n1", "viability at 10 µM": 91.9}, {"compound": "CC1CCN(c2ccnc(Nc3ccc(OCCCN4CCOCC4)cc3)n2)CC1", "viability at 10 µM": 71.8}, {"compound": "ClC1CCN(c2ccnc(Nc3ccc(OCCCN4CCSCC4)cc3)n2)CC1", "viability at 10 µM": 87.7}, {"compound": "c1cc(N2CCOCC2)nc(Nc2ccc(OCCCN3CCSCC3)cc2)n1", "viability at 10 µM": 67.9}, {"compound": "c1cc(N2CCCCC2)nc(Nc2ccc(OCCCN3CCOCC3)cc2)n1", "viability at 10 µM": 61.8}, {"compound": "CCN(CC)CCCOc1ccc(Nc2nccc(N3CCOCC3)n2)cc1", "viability at 10 µM": 66.5}, {"compound": "c1cc(N2CCSCC2)nc(Nc2ccc(OCCCN3CCCCC3)cc2)n1", "viability at 10 µM": 60}, {"compound": "CCN(CC)CCCOc1ccc(Nc2nccc(N3CCC(C)CC3)n2)cc1", "viability at 10 µM": 93.2}, {"compound": "CCN(CC)c1ccnc(Nc2ccc(OCCCN3CCCCC3)cc2)n1", "viability at 10 µM": 69.7}, {"compound": "c1cc(N2CCCC2)nc(Nc2ccc(OCCCN3CCCCC3)cc2)n1", "viability at 10 µM": 66.1}, {"compound": "ClC1CCN(c2ccnc(Nc3ccc(OCCCN4CCCCC4)cc3)n2)CC1", "viability at 10 µM": 87.1}, {"compound": "CN1CCN(c2ccnc(Nc3ccc(OCCCN4CCSCC4)cc3)n2)CC1", "viability at 10 µM": 79.8}, {"compound": "CCN(CC)c1ccnc(Nc2ccc(OCCCN3CCOCC3)cc2)n1", "viability at 10 µM": 94.9}, {"compound": "c1cc(N2CCCC2)nc(Nc2ccc(OCCCN3CCSCC3)cc2)n1", "viability at 10 µM": 84.7}, {"compound": "c1cc(N2CCCC2)nc(Nc2ccc(OCCCN3CCOCC3)cc2)n1", "viability at 10 µM": 89}, {"compound": "CCN(CC)CCCOc1ccc(Nc2nccc(N3CCN(C)CC3)n2)cc1", "viability at 10 µM": 67}, {"compound": "CCN(CC)CCCOc1ccc(Nc2nccc(N3CCCCC3)n2)cc1", "viability at 10 µM": 95.4}, {"compound": "CC1CCN(c2ccnc(Nc3ccc(OCCCN4CCCCC4)cc3)n2)CC1", "viability at 10 µM": 73.7}, {"compound": "CN1CCN(c2ccnc(Nc3ccc(OCCCN4CCCCC4)cc3)n2)CC1", "viability at 10 µM": 76.9}, {"compound": "ClC1CCN(c2ccnc(Nc3ccc(OCCCN4CCOCC4)cc3)n2)CC1", "viability at 10 µM": 93.3}, {"compound": "CCN(CC)CCCOc1ccc(Nc2nccc(N3CCCC3)n2)cc1", "viability at 10 µM": 78.5}, {"compound": "CN1CCN(c2ccnc(Nc3ccc(OCCCN4CCOCC4)cc3)n2)CC1", "viability at 10 µM": 89.6}, {"compound": "CC1CCN(c2ccnc(Nc3ccc(OCCCN4CCSCC4)cc3)n2)CC1", "viability at 10 µM": 79.5}, {"compound": "c1cc(N2CCOCC2)nc(Nc2ccc(OCCCN3CCOCC3)cc2)n1", "viability at 10 µM": 83.2}]}, {"tested_on": "MDA-MB-468", "test": "cells", "format": "functional", "conditions": "Homo sapiens, MDA-MB-468, 48 h", "units": {"GI50": "µM"}, "description": "Growth inhibition of EGFR over-expressing human MDA-MB-468 cells after 48 hrs by MTT assay", "values": [{"compound": "c1cc(N2CCCCC2)nc(Nc2ccc(OCCCN3CCCCC3)cc2)n1", "GI50": 9.2}, {"compound": "CCN(CC)c1ccnc(Nc2ccc(OCCCN3CCSCC3)cc2)n1", "GI50": 7.6}, {"compound": "CC1CCN(c2ccnc(Nc3ccc(OCCCN4CCOCC4)cc3)n2)CC1", "GI50": 16.3}, {"compound": "c1cc(N2CCCCC2)nc(Nc2ccc(OCCCN3CCOCC3)cc2)n1", "GI50": 18.3}, {"compound": "CCN(CC)CCCOc1ccc(Nc2nccc(N3CCC(C)CC3)n2)cc1", "GI50": 6.9}, {"compound": "CCN(CC)c1ccnc(Nc2ccc(OCCCN3CCCCC3)cc2)n1", "GI50": 11.4}, {"compound": "ClC1CCN(c2ccnc(Nc3ccc(OCCCN4CCCCC4)cc3)n2)CC1", "GI50": 11.5}, {"compound": "CC1CCN(c2ccnc(Nc3ccc(OCCCN4CCCCC4)cc3)n2)CC1", "GI50": 6.4}]}, {"tested_on": "MDA-MB-468", "test": "Cytotoxicity against EGFR over-expressing human MDA-MB-468 cells assessed as cell viability at 10 uM after 48 hrs by MTT assay relative to control", "format": "functional", "conditions": "MDA-MB-468, 48 h, read-out: Activity", "units": {"viability at 10 µM": "%"}, "values": [{"compound": "c1cc(N2CCSCC2)nc(Nc2ccc(OCCCN3CCOCC3)cc2)n1", "viability at 10 µM": 73.4}, {"compound": "COc1cc2ncnc(Nc3ccc(F)c(Cl)c3)c2cc1OCCCN1CCOCC1", "note": "[GEFITINIB]", "viability at 10 µM": 60.3}, {"compound": "CCN(CC)CCCOc1ccc(Nc2nccc(N3CCSCC3)n2)cc1", "viability at 10 µM": 88}, {"compound": "c1cc(N2CCCCC2)nc(Nc2ccc(OCCCN3CCSCC3)cc2)n1", "viability at 10 µM": 71.8}, {"compound": "c1cc(N2CCCCC2)nc(Nc2ccc(OCCCN3CCCCC3)cc2)n1", "viability at 10 µM": 45.1}, {"compound": "c1cc(N2CCOCC2)nc(Nc2ccc(OCCCN3CCCCC3)cc2)n1", "viability at 10 µM": 86.8}, {"compound": "c1cc(N2CCSCC2)nc(Nc2ccc(OCCCN3CCSCC3)cc2)n1", "viability at 10 µM": 65}, {"compound": "CCN(CC)c1ccnc(Nc2ccc(OCCCN3CCSCC3)cc2)n1", "viability at 10 µM": 36}, {"compound": "CC1CCN(c2ccnc(Nc3ccc(OCCCN4CCOCC4)cc3)n2)CC1", "viability at 10 µM": 51.3}, {"compound": "ClC1CCN(c2ccnc(Nc3ccc(OCCCN4CCSCC4)cc3)n2)CC1", "viability at 10 µM": 62.7}, {"compound": "c1cc(N2CCOCC2)nc(Nc2ccc(OCCCN3CCSCC3)cc2)n1", "viability at 10 µM": 57.4}, {"compound": "c1cc(N2CCCCC2)nc(Nc2ccc(OCCCN3CCOCC3)cc2)n1", "viability at 10 µM": 55.2}, {"compound": "CCN(CC)CCCOc1ccc(Nc2nccc(N3CCOCC3)n2)cc1", "viability at 10 µM": 79.4}, {"compound": "c1cc(N2CCSCC2)nc(Nc2ccc(OCCCN3CCCCC3)cc2)n1", "viability at 10 µM": 78.1}, {"compound": "CCN(CC)CCCOc1ccc(Nc2nccc(N3CCC(C)CC3)n2)cc1", "viability at 10 µM": 16.9}, {"compound": "CCN(CC)c1ccnc(Nc2ccc(OCCCN3CCCCC3)cc2)n1", "viability at 10 µM": 53.1}, {"compound": "c1cc(N2CCCC2)nc(Nc2ccc(OCCCN3CCCCC3)cc2)n1", "viability at 10 µM": 58.1}, {"compound": "ClC1CCN(c2ccnc(Nc3ccc(OCCCN4CCCCC4)cc3)n2)CC1", "viability at 10 µM": 52.1}, {"compound": "CN1CCN(c2ccnc(Nc3ccc(OCCCN4CCSCC4)cc3)n2)CC1", "viability at 10 µM": 56.5}, {"compound": "CCN(CC)c1ccnc(Nc2ccc(OCCCN3CCOCC3)cc2)n1", "viability at 10 µM": 69.7}, {"compound": "c1cc(N2CCCC2)nc(Nc2ccc(OCCCN3CCSCC3)cc2)n1", "viability at 10 µM": 78.3}, {"compound": "c1cc(N2CCCC2)nc(Nc2ccc(OCCCN3CCOCC3)cc2)n1", "viability at 10 µM": 77.1}, {"compound": "CCN(CC)CCCOc1ccc(Nc2nccc(N3CCN(C)CC3)n2)cc1", "viability at 10 µM": 64.6}, {"compound": "CCN(CC)CCCOc1ccc(Nc2nccc(N3CCCCC3)n2)cc1", "viability at 10 µM": 62}, {"compound": "CC1CCN(c2ccnc(Nc3ccc(OCCCN4CCCCC4)cc3)n2)CC1", "viability at 10 µM": 21.3}, {"compound": "CN1CCN(c2ccnc(Nc3ccc(OCCCN4CCCCC4)cc3)n2)CC1", "viability at 10 µM": 71.7}, {"compound": "ClC1CCN(c2ccnc(Nc3ccc(OCCCN4CCOCC4)cc3)n2)CC1", "viability at 10 µM": 61.6}, {"compound": "CCN(CC)CCCOc1ccc(Nc2nccc(N3CCCC3)n2)cc1", "viability at 10 µM": 69.7}, {"compound": "CN1CCN(c2ccnc(Nc3ccc(OCCCN4CCOCC4)cc3)n2)CC1", "viability at 10 µM": 80.7}, {"compound": "CC1CCN(c2ccnc(Nc3ccc(OCCCN4CCSCC4)cc3)n2)CC1", "viability at 10 µM": 61.3}, {"compound": "c1cc(N2CCOCC2)nc(Nc2ccc(OCCCN3CCOCC3)cc2)n1", "viability at 10 µM": 84.5}]}]}
